The results in this text go back to US8226943B2, “Antibodies to notch receptors” (OncoMed Pharmaceuticals, Inc., priority 2008, dated 2012).

Like-named read-outs stand apart in the source and are kept apart here.

The target in one assay is T1, human Notch1 (Homo sapiens, UniProt P46531).
T1 construct: expressed in transfected cells; host or cells: HEK-293, transient, co-transfected with GFP
The assay can be described thus: FACS binding to transiently transfected HEK-293 cells, human Notch1. The method, then:
(§1) The ability of the 59R1 IgG2 antibody to cross-react with other Notch receptors was determined by FACS assay using HEK-293 cells transiently transfected with the human Notch1, Notch2, Notch3 or Notch4 expression plasmid and green fluorescent protein (GFP) as a transfection control. GFP positive cells indicated expression of the transgene. The 59R1 IgG2 was added to the cells at 2 μg/ml and detected by PE-conjugated goat anti-human Fc gamma specific (Jackson Immunochemicals). All Notch constructs were full length.
(§2) The binding epitope of 59R5 was determined. As was described in Example 3 for analysis of antibody 59R1, several point mutants were created within full-length Notch1, converting residues within EGF10 to the corresponding amino acids in human Notch 2. Mutants in full-length Notch sequences were generated by QuikChange® mutagenesis (Stratagene) and verified by sequencing. HEK 293 cells were transiently transfected with expression vectors encoding human Notch2, human Notch1, or human Notch1 with residues 382-386 mutated to the corresponding human Notch2 residues. Cells were also co-transfected with a plasmid encoding green fluorescent protein (GFP) to mark those cells that received transfected plasmid. […] 59R1 and 59R5 were detected by PE-conjugated goat anti-human Fc gamma specific antibody (Jackson Immunochemicals, #109-116-170). […]

Another assay concerns the target T2, mNotch1 (Mus musculus, UniProt Q01705).
T2 construct: recombinant human and mouse Notch proteins (EGF10-15 for Notch1, 2, & 4; EGF9-14 for Notch3) were immobilized on a CM5 chip
T2 sequence (Q01705 372-601 limits assumed): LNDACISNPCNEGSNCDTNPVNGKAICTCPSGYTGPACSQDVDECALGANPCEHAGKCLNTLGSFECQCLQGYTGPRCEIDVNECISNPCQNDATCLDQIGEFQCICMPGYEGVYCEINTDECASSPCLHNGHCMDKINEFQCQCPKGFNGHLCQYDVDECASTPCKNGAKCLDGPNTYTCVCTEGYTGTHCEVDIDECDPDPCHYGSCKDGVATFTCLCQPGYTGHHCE
The assay can be described thus: Biacore affinity, mouse Notch1. The class given is binding. The method, then:
The affinities for human and mouse Notch1, Notch2, Notch3, and Notch4 were determined using a Biacore 2000 instrument. Briefly, recombinant human and mouse Notch proteins (EGF10-15 for Notch1, 2, & 4; EGF9-14 for Notch3) were immobilized on a CM5 chip using standard amine based chemistry (NHS/EDC). For hNotch2, EGF1-12 was also tested for binding. Different antibody concentrations (1-100 nM) were injected over the protein surfaces and kinetic data were collected over time. The data was fit using the simultaneous global fit equation to yield dissociation constants (KD, nM) for each Notch (Table 3).
The sequences of the heavy chain and light chain are provided in SEQ ID NO: 49 and SEQ ID NO:18, respectively. The heavy chain variable region is provided in SEQ ID NO:50 and the light chain variable region is provide SEQ ID NO:13. The heavy chain CDR3 sequence of 59R5 comprises SIFYTT, SEQ ID NO:51. The other CDR sequences of 59R5 are identical to 59R1. […] Both antibodies bind human and murine Notch2 and Notch3 receptors with sub-nanomolar affinity (see Table 6).

The next assay has as its system PE13 tumors. The assay is described as follows: Microarray analysis of 59R1 and 59R5 treated PE13 tumors. The class given is in vivo, mice. The note with it: for Fold Foxc2 / Fold Gzma / Fold Hey2 / Fold Heyl / Fold Mmp9 / Fold Notch3 / Fold Pdcd1lg2 / Fold Rgs4 / Fold Rgs5: treated vs. control, mean of 3 animals per group. The source says:
The numbers are mean differential expression values for treated vs. control animals, with 3 animals per group.

The next assay has as its target human Notch2 (Homo sapiens, UniProt Q04721). The assay is described as follows: FACS binding to transiently transfected HEK-293 cells, human Notch2. Further details: expressed in transfected cells; host or cells: HEK-293, stably transfected. The method, then:
as §1, §2
For orientation: Flow cytometry measures light scatter and fluorescence of single cells or particles in a stream.

Setting [1] is: Table 6, Biacore, read-out: IgG Dissociation Constant (KD) m-Notch1.

T1 sequence (P46531 19-2555): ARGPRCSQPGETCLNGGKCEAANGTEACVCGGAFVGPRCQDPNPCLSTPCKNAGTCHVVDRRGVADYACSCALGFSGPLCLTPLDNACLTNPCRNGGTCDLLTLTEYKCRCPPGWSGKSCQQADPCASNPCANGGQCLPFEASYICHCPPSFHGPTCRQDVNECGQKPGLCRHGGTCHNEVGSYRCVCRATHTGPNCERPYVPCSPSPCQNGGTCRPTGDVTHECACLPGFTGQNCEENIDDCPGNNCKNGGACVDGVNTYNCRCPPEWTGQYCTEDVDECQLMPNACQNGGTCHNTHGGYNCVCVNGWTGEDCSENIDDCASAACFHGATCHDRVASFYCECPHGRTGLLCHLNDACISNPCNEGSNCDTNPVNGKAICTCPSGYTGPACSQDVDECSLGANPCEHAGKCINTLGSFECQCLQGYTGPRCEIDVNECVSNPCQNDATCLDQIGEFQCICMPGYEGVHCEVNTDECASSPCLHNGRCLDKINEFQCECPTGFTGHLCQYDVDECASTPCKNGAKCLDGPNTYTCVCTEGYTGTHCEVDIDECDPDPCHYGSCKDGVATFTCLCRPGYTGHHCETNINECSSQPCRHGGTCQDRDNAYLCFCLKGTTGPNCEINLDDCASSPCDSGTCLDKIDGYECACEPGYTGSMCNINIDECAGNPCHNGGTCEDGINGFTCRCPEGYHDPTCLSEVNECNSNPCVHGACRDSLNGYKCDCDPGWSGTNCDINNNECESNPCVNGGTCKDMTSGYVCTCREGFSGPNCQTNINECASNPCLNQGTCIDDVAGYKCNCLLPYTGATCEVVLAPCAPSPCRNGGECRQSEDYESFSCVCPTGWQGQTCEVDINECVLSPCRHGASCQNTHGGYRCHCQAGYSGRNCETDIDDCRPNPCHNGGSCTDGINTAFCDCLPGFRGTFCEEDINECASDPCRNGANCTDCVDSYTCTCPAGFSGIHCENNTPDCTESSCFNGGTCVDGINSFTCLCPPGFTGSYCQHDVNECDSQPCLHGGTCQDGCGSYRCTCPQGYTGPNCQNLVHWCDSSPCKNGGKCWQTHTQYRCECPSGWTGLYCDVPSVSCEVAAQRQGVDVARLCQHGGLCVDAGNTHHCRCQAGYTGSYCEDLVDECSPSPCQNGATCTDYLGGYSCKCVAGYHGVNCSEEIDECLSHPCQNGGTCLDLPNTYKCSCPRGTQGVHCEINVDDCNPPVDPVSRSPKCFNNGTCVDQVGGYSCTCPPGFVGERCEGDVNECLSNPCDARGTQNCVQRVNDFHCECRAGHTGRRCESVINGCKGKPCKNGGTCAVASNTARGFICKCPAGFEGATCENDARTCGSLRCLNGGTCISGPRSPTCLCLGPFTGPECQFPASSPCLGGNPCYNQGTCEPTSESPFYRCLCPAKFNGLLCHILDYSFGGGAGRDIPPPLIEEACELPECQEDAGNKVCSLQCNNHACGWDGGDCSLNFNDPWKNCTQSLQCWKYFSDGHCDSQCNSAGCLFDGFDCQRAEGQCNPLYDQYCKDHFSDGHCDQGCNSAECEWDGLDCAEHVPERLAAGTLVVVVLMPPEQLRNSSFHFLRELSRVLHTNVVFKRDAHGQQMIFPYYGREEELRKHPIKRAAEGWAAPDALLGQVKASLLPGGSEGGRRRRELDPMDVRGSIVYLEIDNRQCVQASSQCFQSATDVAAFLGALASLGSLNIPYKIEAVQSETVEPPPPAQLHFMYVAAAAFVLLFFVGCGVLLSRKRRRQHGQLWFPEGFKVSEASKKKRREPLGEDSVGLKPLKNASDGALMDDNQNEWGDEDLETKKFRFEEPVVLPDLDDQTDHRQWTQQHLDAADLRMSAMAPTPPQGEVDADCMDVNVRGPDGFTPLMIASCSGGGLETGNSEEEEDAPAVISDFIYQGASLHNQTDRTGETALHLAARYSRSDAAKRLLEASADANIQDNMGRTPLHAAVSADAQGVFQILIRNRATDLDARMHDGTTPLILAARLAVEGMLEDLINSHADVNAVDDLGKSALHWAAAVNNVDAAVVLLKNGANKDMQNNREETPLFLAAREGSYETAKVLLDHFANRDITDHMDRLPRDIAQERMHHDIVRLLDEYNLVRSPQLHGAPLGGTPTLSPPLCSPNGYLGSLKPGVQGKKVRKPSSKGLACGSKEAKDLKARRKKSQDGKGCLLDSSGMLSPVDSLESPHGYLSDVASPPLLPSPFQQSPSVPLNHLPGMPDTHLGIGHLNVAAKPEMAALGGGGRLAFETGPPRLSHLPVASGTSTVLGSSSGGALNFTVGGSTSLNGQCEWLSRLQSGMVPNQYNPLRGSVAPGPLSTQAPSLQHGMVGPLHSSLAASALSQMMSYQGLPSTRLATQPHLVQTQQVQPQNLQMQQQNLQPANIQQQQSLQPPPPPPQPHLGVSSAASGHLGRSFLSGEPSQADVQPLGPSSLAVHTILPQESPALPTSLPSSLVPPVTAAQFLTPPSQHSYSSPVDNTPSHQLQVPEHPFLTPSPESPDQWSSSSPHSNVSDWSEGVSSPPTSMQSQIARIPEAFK
human Notch2, sequence (Q04721 26-2471): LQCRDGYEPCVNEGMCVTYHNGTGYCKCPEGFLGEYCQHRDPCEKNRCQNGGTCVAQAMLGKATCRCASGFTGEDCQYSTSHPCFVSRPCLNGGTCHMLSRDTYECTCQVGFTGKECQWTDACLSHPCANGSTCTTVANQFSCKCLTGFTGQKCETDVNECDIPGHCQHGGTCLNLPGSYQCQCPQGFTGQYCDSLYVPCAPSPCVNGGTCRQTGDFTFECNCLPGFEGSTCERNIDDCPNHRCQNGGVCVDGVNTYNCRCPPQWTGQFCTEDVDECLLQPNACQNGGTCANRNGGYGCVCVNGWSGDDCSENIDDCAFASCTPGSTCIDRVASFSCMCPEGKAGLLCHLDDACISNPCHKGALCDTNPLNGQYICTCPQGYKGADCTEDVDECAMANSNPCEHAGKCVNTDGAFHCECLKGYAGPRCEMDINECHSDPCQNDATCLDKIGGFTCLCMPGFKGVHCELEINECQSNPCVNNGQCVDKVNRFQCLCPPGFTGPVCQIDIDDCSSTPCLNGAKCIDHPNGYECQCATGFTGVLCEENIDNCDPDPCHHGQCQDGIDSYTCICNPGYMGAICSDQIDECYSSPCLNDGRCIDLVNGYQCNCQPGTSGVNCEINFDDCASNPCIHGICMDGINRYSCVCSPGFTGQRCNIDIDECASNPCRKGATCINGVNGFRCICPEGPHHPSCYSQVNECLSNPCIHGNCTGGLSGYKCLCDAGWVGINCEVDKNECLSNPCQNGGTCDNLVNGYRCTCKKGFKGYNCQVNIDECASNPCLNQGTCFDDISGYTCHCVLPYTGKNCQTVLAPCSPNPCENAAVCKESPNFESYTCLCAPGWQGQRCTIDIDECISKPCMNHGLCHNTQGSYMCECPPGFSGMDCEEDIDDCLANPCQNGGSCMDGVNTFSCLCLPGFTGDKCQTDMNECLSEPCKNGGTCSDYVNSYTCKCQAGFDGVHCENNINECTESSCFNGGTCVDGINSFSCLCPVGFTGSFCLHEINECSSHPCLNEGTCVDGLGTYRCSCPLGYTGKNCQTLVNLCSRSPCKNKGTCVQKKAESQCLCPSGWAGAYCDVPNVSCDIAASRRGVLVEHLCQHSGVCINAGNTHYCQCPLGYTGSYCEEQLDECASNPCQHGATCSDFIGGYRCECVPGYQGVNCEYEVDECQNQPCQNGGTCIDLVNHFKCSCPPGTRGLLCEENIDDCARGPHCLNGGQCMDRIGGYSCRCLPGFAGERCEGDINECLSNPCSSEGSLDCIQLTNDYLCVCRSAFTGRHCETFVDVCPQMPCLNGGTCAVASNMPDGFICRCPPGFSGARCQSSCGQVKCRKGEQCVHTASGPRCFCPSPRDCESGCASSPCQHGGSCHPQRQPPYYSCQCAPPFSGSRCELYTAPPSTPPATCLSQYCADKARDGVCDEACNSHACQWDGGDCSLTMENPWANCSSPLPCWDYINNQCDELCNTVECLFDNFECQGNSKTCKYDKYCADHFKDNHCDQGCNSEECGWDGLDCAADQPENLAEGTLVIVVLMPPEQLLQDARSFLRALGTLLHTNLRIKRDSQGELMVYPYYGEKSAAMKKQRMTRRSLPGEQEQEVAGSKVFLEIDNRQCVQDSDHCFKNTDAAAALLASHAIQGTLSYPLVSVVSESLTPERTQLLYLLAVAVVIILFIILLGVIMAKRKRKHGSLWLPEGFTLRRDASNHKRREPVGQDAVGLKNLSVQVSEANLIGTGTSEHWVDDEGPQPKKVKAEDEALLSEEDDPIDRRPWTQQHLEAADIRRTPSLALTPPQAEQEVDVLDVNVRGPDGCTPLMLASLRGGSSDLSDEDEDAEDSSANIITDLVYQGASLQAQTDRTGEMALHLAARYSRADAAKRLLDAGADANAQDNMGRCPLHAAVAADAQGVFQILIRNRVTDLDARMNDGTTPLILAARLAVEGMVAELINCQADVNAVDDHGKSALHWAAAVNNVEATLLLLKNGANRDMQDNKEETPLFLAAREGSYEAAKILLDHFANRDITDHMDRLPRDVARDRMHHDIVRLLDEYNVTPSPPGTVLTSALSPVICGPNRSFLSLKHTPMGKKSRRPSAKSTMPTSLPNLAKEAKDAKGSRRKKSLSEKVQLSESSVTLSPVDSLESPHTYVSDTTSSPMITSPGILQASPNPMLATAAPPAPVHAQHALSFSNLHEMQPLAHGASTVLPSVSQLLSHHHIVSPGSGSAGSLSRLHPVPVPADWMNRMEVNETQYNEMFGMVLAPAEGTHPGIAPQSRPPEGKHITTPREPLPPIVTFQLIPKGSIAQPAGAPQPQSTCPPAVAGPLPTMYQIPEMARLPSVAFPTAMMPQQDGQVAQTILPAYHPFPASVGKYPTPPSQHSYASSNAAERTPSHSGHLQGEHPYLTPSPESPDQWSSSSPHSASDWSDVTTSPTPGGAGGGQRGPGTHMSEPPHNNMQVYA

Usually Kd stands for the free concentration of one partner at which half of the binding sites on the other are occupied at equilibrium, for simple one-to-one binding. For “59R1: human IgG2 antibody binding Notch2 and Notch3; heavy and light chain SEQ ID NO:16 and 18; ATCC PTA-9547”, in the assay with human Notch1, the “binding to full-length human Notch1 (FACS)” value is recorded as “does not bind significantly”. Further, the Kd with mNotch1 (Table 3, Biacore, EGF10-15, read-out: Dissociation Constant (KD) mNotch1) was more than 10 nM. For the same substance, in the assay with mNotch1 (setting [1]), the Kd was more than 10 nM. For the same substance, in the assay on PE13 tumors, the “Fold Foxc2” value is reported as −5.10, the “Fold Gzma” value turned out to be 7.42, the “Fold Hey2” value was −4.40 and the “Fold Heyl” value is −3.33. For the same substance, in the assay with PE13 tumors, the “Fold Mmp9” value is −1.92, the “Fold Notch3” value is recorded as −2.10, the “Fold Pdcd1lg2” value came out at 2.36 and the “Fold Rgs4” value is given as −2.71. The “Fold Rgs5” value with PE13 tumors is reported as −4.32. Besides, the “binding to full-length human Notch2 (FACS)” value with human Notch2 is reported as “specifically binds”.
“59R5: human antibody that specifically binds human Notch 2 and human Notch 3; heavy and light chain SEQ ID NO:49 and 18; ATCC PTA-10170”: the “binding to full-length human Notch1 (FACS)” value with human Notch1 was “did not bind”. Also, the Kd with mNotch1 (setting [1]) is more than 10 nM. In the assay with PE13 tumors (microarray, p<0.01), the “Notch pathway as measured by gene expression (Foxc2, Hey2, Heyl, Notch3)” value was “significantly inhibited the Notch pathway”. In the assay with PE13 tumors, the “Fold Foxc2” value is listed as −3.00, the “Fold Gzma” value came out at 2.80, the “Fold Hey2” value is −2.46 and the “Fold Heyl” value was −2.79. In the assay with PE13 tumors, the “Fold Mmp9” value is recorded as −2.35, the “Fold Notch3” value is −1.86, the “Fold Pdcd1lg2” value is recorded as 4.97 and the “Fold Rgs4” value is −2.90. For the same substance, in the assay on PE13 tumors, the “Fold Rgs5” value is −2.14. Moreover, in the assay with human Notch2, the “binding to full-length human Notch2 (FACS)” value was “bound”.
